Species: Rattus norvegicus
Experiment: Open TG-GATES - Regimen: Single
Type: toxicity, organism-based, Sprague-Dawley
Parameters: regimen Single, gender Male, age 6 weeks
Details: in vivo, po, 2000 mg/kg, route gavage, dose level High; for APTT / Bas / Eos / Fbg / Hb / Ht / Lym / MCH / MCHC / MCV / Mono / Neu / PT / Plat / RBC / Ret / WBC: tissue Blood; for KIDNEY_L / KIDNEY_R / KIDNEY_TOTAL: tissue Kidney; for LIVER: tissue Liver; for A/G / ALP / ALT / AST / BUN / CRE / Ca / Cl / DBIL / GLC / IP / K / LDH / Na / PL / RALB / TBIL / TC / TG / TP / gamma-GTP: tissue Plasma

With CCN1CCCC1CNC(=O)c1cc(S(N)(=O)=O)ccc1OC (configuration not stated) [SULPIRIDE] the TERMINAL_BW (3 h) was 201.8 g, the APTT (3 h) was 18.6 s and the Bas (3 h) was 0%. For the same compound, the Eos (3 h) was 0.6%, the Fbg (3 h) was 244.2 mg/dL and the Hb (3 h) was 12.7 g/dL. It also gave a Ht (3 h) of 39.6%, a Lym (3 h) of 82% and an MCH (3 h) of 21 pg. It also gave an MCHC (3 h) of 32.2%, an MCV (3 h) of 65.4 fL and a Mono (3 h) of 3.2%. For the same compound, the Neu (3 h) was 13%, the PT (3 h) was 13.9 s and the Plat (3 h) was 117.9 x10_4/uL. The RBC (3 h) was 606.4 x10_4/ul, the Ret (3 h) was 7.7% and the WBC (3 h) was 82.3 x10_2/uL. It also gave a KIDNEY_L (3 h) of 0.9 g, a KIDNEY_R (3 h) of 0.9 g and a KIDNEY_TOTAL (3 h) of 1.8 g. The LIVER (3 h) was 9 g, the A/G (3 h) was 0.9 and the ALP (3 h) was 1446.6 IU/L. For the same compound, the ALT (3 h) was 42 IU/L, the AST (3 h) was 74.6 IU/L and the BUN (3 h) was 9.4 mg/dL. For the same compound, the CRE (3 h) was 0.2 mg/dL, the Ca (3 h) was 10.6 mg/dL and the Cl (3 h) was 105.4 meq/L. For the same compound, the DBIL (3 h) was 0.004 mg/dL, the GLC (3 h) was 174 mg/dL and the IP (3 h) was 8.8 mg/dL. The K (3 h) was 3.9 meq/L, the LDH (3 h) was 90.2 IU/L and the Na (3 h) was 143.4 meq/L. The PL (3 h) was 119.6 mg/dL, the RALB (3 h) was 2.3 g/dL and the TBIL (3 h) was 0.068 mg/dL. For the same compound, the TC (3 h) was 57.6 mg/dL, the TG (3 h) was 55 mg/dL and the TP (3 h) was 4.9 g/dL. It also gave a gamma-GTP (3 h) of 1.2 IU/L, a TERMINAL_BW (6 h) of 199.5 g and an APTT (6 h) of 17 s. It also gave a Bas (6 h) of 0%, an Eos (6 h) of 0.8% and a Fbg (6 h) of 273 mg/dL. The Hb (6 h) was 13 g/dL, the Ht (6 h) was 40.9% and the Lym (6 h) was 76.6%. The MCH (6 h) was 20.9 pg, the MCHC (6 h) was 31.9% and the MCV (6 h) was 65.6 fL. The Mono (6 h) was 2.6%, the Neu (6 h) was 19% and the PT (6 h) was 13.4 s. It also gave a Plat (6 h) of 121.6 x10_4/uL, an RBC (6 h) of 623.8 x10_4/ul and a Ret (6 h) of 7.6%. It also gave a WBC (6 h) of 63.1 x10_2/uL, a KIDNEY_L (6 h) of 0.9 g and a KIDNEY_R (6 h) of 0.9 g. The KIDNEY_TOTAL (6 h) was 1.7 g, the LIVER (6 h) was 8.1 g and the A/G (6 h) was 0.9. It also gave an ALP (6 h) of 1306.2 IU/L, an ALT (6 h) of 39.6 IU/L and an AST (6 h) of 74.2 IU/L. For the same compound, the BUN (6 h) was 7.2 mg/dL, the CRE (6 h) was 0.1 mg/dL and the Ca (6 h) was 10.5 mg/dL. It also gave a Cl (6 h) of 106.4 meq/L, a DBIL (6 h) of 0 mg/dL and a GLC (6 h) of 163.6 mg/dL. The IP (6 h) was 9.1 mg/dL, the K (6 h) was 4 meq/L and the LDH (6 h) was 92 IU/L. The Na (6 h) was 142.4 meq/L, the PL (6 h) was 133.2 mg/dL and the RALB (6 h) was 2.4 g/dL. The TBIL (6 h) was 0.07 mg/dL, the TC (6 h) was 72.2 mg/dL and the TG (6 h) was 35.2 mg/dL. It also gave a TP (6 h) of 5.2 g/dL, a gamma-GTP (6 h) of 1 IU/L and a TERMINAL_BW (9 h) of 199.2 g. For the same compound, the APTT (9 h) was 19.7 s, the Bas (9 h) was 0% and the Eos (9 h) was 1%. For the same compound, the Fbg (9 h) was 296.6 mg/dL, the Hb (9 h) was 13.3 g/dL and the Ht (9 h) was 41.7%. The Lym (9 h) was 79.6%, the MCH (9 h) was 20.1 pg and the MCHC (9 h) was 32%. It also gave an MCV (9 h) of 62.9 fL, a Mono (9 h) of 2.2% and a Neu (9 h) of 16.6%. For the same compound, the PT (9 h) was 13.2 s, the Plat (9 h) was 117.3 x10_4/uL and the RBC (9 h) was 663.8 x10_4/ul. The Ret (9 h) was 7.5%, the WBC (9 h) was 63.8 x10_2/uL and the KIDNEY_L (9 h) was 0.9 g. For the same compound, the KIDNEY_R (9 h) was 0.9 g, the KIDNEY_TOTAL (9 h) was 1.8 g and the LIVER (9 h) was 7.5 g. For the same compound, the A/G (9 h) was 0.9, the ALP (9 h) was 1349.6 IU/L and the ALT (9 h) was 30.8 IU/L. It also gave an AST (9 h) of 67.4 IU/L, a BUN (9 h) of 7.4 mg/dL and a CRE (9 h) of 0.1 mg/dL. For the same compound, the Ca (9 h) was 10.5 mg/dL, the Cl (9 h) was 108.4 meq/L and the DBIL (9 h) was 0.008 mg/dL. The GLC (9 h) was 165.6 mg/dL, the IP (9 h) was 10.1 mg/dL and the K (9 h) was 4.3 meq/L. The LDH (9 h) was 88.2 IU/L, the Na (9 h) was 142 meq/L and the PL (9 h) was 133.8 mg/dL. The RALB (9 h) was 2.5 g/dL, the TBIL (9 h) was 0.076 mg/dL and the TC (9 h) was 73 mg/dL. The TG (9 h) was 29 mg/dL, the TP (9 h) was 5.3 g/dL and the gamma-GTP (9 h) was 1.6 IU/L. The TERMINAL_BW (24 h) was 209.1 g, the APTT (24 h) was 16.6 s and the Bas (24 h) was 0.2%. For the same compound, the Eos (24 h) was 0.8%, the Fbg (24 h) was 301.4 mg/dL and the Hb (24 h) was 13.8 g/dL. It also gave a Ht (24 h) of 42.8%, a Lym (24 h) of 79.2% and an MCH (24 h) of 20.4 pg. It also gave an MCHC (24 h) of 32.3%, an MCV (24 h) of 63.2 fL and a Mono (24 h) of 3.6%. For the same compound, the Neu (24 h) was 15.4%, the PT (24 h) was 12.7 s and the Plat (24 h) was 120.6 x10_4/uL. It also gave an RBC (24 h) of 678.6 x10_4/ul, a Ret (24 h) of 7% and a WBC (24 h) of 97.3 x10_2/uL. It also gave a KIDNEY_L (24 h) of 0.9 g, a KIDNEY_R (24 h) of 0.9 g and a KIDNEY_TOTAL (24 h) of 1.9 g. It also gave an LIVER (24 h) of 9 g, an A/G (24 h) of 0.9 and an ALP (24 h) of 1595.2 IU/L. For the same compound, the ALT (24 h) was 40.6 IU/L, the AST (24 h) was 64.8 IU/L and the BUN (24 h) was 17.4 mg/dL. It also gave a CRE (24 h) of 0.2 mg/dL, a Ca (24 h) of 11.3 mg/dL and a Cl (24 h) of 103.8 meq/L. For the same compound, the DBIL (24 h) was 0.012 mg/dL, the GLC (24 h) was 179.8 mg/dL and the IP (24 h) was 9.3 mg/dL. The K (24 h) was 4.8 meq/L, the LDH (24 h) was 101 IU/L and the Na (24 h) was 141.4 meq/L. For the same compound, the PL (24 h) was 149.8 mg/dL, the RALB (24 h) was 2.7 g/dL and the TBIL (24 h) was 0.064 mg/dL. For the same compound, the TC (24 h) was 86.2 mg/dL, the TG (24 h) was 77 mg/dL and the TP (24 h) was 5.7 g/dL. It also gave a gamma-GTP (24 h) of 1 IU/L.

— ChEMBL document CHEMBL3885861, “Open TG-GATES”
